Values after ≈ are worked out from the molar mass of the structure shown. Like-named read-outs stand apart in the source and are kept apart here.
Tests used:
[1] = tested on: Enterococcus faecalis ATCC 29212; assay: MIC panel (Laboratory Specialists, Inc.), E. faecalis; format: cell-based; conditions: ATCC29212, Cmpd. 6, CLSI broth microdilution
[2] = biological target: Dopamine transporter (Homo sapiens, UniProt Q01959); assay: Off-target safety panel, dopamine transporter; format: binding; conditions: duplicate, read-out: % Inhibition at 100 μM conc., Dopamine transporter
Method: (§1) Potential off-target pharmacology for compound 6 was also evaluated by screening in duplicate against a panel (Bowes, J., et al., Reducing Safety-Related Drug Attrition: The Use of in vitro Pharmacological Profiling. Nat. Rev. Drug Disc. 2012, 11, 909-922) of 44 receptors, enzymes, etc. Of the 44 potential targets, only five were inhibited by >50% at a concentration of 100 μM (Table 7).

[3] = biological target: 5-HT2B (Homo sapiens, UniProt P41595); assay: Off-target safety panel, 5-HT2B; format: binding; conditions: duplicate, read-out: % Inhibition at 100 μM conc., 5-HT2B
Method: as §1

[4] = 100 μM
Method: as §1

[5] = biological target: T1, CYP1A2 (Homo sapiens, UniProt P05177); format: in vitro ADME; conditions: 10 μM; human liver microsomes
T1 construct: incubated with human liver microsomes (mixed gender, pool of 50 donors, 0.1 mg/mL); from tissue; host or cells: human liver microsomes, pool of 50 donors
Method: CYP450 inhibition assays was conducted using individual enzyme substrates and inhibitors instead of a cocktail to avoid interferences. CYP450 isoforms tested included the following: CYP1A2, CYP2B6, CYP2C8, CYP2C9, CYP2C19, CYP2D6, and CYP3A4. Each test compound was screened at a final concentration of 10 μM. Each test compound was incubated with human liver microsomes (mixed gender, pool of 50 donors, 0.1 mg/mL), CYP450-selective probe substrates, and co-factors (NADPH, MgCl2) in phosphate buffer (pH 7.4) for 10-30 min in a 96-well plate at 37° C. The reactions were stopped by transferring the reaction mixture to acetonitrile/methanol. Samples were mixed and centrifuged, and the supernatants analyzed by LC-MS/MS to quantify percent inhibition relative to vehicle control.

[6] = biological target: T2, Nav1.5 Late Current Human Ion Channel (Homo sapiens, UniProt Q14524); format: cell-based; conditions: in presence of 30 nM ATXII
T2 construct: expressed in transfected cells
From the text: (§2) Early drug discovery programs commonly assess hERG inhibition as the only indicator of potential cardiovascular safety concerns. Researchers have recently recommended a more rigorous evaluation of multiple cardiac ion channels to provide a more comprehensive cardiovascular risk assessment (Fermini, B., et al., A New Perspective in the Field of Cardiac Safety Testing through the Comprehensive In Vitro Proarrhythmia Assay Paradigm. J. Biomolec. Screening 2016, 21, 1-11). Given the promising initial results for 6, further evaluation was undertaken (in duplicate) in a Comprehensive in vitro Proarrhythmia Assay (CiPA) eight assay panel run on the QPatch HT (Sophion, Denmark) automated patch clamp system at three concentrations (3, 30, and 100 μM). All data were filtered for seal quality, seal drop, and current amplitude. A stock solution of the test compound at 30 mM concentration was prepared in DMSO.
The parameters measured were the maximum inward current (charge) evoked on stepping to −15mV from the test pulse in the presence of 30 nM ATXII. The peak and ramp current (charge) amplitude was calculated before and after compound addition and the amount of current (charge) was assessed by dividing the Test compound current (charge) by the Control current (charge). Control is the mean hNav1.5 late current (charge) collected 15 seconds at the end of the control (30 nM ATXII); Test Compound is the mean hNav1.5 current (charge) collected in the presence of test compound and 30 nM ATXII at each concentration. The positive control was ranolizine.

[7] = biological target: T3, hERG Human Potassium Ion Channel (Homo sapiens, UniProt Q12809); assay: hERG QPatch CiPA assay; format: cell-based; conditions: mean, duplicate
T3 construct: expressed in transfected cells
From the text: as §2
The parameters measured were the maximum tail current evoked on stepping to 40 mV and ramping back to −80 mV from the test pulse. The peak current amplitude was calculated before and after compound addition and the amount of block was assessed by dividing the Test compound current amplitude by the Control current amplitude. Control is the mean hERG current amplitude collected 15 seconds at the end of the control; Test Compound is the mean hERG current amplitude collected in the presence of test compound at each concentration. The positive control was E-4031.

[8] = tested on: MRSADRL-3161; assay: MIC panel (Laboratory Specialists, Inc.), MRSA; format: cell-based; conditions: Staphylococcus aureus; Cmpd. 6; CLSI broth microdilution
[9] = tested on: USA300 isolate of MRSA; assay: MIC, CLSI broth microdilution, USA300 MRSA; format: cell-based; conditions: Staphylococcus aureus; CLSI broth microdilution; ciprofloxacin-resistant MRSA; read-out: MIC USA300
[10] = in vitro; format: in vitro ADME; conditions: pH 7.4, 10 μM, equilibrium dialysis
Method: In this assay an equilibrium dialysis technique was used to separate unbound test compound from compound bound to proteins. The plasma was spiked with the test compound at 10 μM with a final DMSO concentration of 1%. The dialysate compartment was loaded with phosphate buffered saline (PBS, pH 7.4) and the sample side was loaded with equal volume of the spiked plasma, After incubation at 37° C. for 4 hours, samples were removed from each plasma and buffer chamber; plasma protein was removed by treatment with acetonitrile. Recovered samples were analyzed using LC-MS.

[11] = tested on: Streptococcus pneumoniae LSI-4234; assay: MIC panel (Laboratory Specialists, Inc.), S. pneumoniae LSI-4234; format: cell-based; conditions: LSI4234, Cmpd. 6, penicillin-susceptible strain
[12] = physchem; format: physicochemical; conditions: aqueous buffer, kinetic from dmso stock; buffered aqueous solution (pH 7.4)
Method: Test compounds were prepared at 10 mM in 100% DMSO and diluted into aqueous buffer, pH 7.4, to achieve a final test compound concentration of 100 μM with a final DMSO concentration of 1%. Caffeine and tamoxifen were assayed as control compounds. The samples were shaken for 90 minutes at room temperature and then filtered through a 0.4 μm filter plate. Filtrates were collected and analyzed using LC-MS/MS.

[13] = tested on: Klebsiella pneumoniae LSI-2999; assay: MIC panel (Laboratory Specialists, Inc.), K. pneumoniae; format: cell-based; conditions: LSI2999, Cmpd. 6, CLSI broth microdilution
[14] = tested on: S. aureus strain isolated from a cystic fibrosis patient; assay: MIC, CLSI broth microdilution, CF isolate; format: cell-based; conditions: Staphylococcus aureus; CLSI broth microdilution; read-out: MIC CF isolate

T2 sequence (Q14524 whole entry): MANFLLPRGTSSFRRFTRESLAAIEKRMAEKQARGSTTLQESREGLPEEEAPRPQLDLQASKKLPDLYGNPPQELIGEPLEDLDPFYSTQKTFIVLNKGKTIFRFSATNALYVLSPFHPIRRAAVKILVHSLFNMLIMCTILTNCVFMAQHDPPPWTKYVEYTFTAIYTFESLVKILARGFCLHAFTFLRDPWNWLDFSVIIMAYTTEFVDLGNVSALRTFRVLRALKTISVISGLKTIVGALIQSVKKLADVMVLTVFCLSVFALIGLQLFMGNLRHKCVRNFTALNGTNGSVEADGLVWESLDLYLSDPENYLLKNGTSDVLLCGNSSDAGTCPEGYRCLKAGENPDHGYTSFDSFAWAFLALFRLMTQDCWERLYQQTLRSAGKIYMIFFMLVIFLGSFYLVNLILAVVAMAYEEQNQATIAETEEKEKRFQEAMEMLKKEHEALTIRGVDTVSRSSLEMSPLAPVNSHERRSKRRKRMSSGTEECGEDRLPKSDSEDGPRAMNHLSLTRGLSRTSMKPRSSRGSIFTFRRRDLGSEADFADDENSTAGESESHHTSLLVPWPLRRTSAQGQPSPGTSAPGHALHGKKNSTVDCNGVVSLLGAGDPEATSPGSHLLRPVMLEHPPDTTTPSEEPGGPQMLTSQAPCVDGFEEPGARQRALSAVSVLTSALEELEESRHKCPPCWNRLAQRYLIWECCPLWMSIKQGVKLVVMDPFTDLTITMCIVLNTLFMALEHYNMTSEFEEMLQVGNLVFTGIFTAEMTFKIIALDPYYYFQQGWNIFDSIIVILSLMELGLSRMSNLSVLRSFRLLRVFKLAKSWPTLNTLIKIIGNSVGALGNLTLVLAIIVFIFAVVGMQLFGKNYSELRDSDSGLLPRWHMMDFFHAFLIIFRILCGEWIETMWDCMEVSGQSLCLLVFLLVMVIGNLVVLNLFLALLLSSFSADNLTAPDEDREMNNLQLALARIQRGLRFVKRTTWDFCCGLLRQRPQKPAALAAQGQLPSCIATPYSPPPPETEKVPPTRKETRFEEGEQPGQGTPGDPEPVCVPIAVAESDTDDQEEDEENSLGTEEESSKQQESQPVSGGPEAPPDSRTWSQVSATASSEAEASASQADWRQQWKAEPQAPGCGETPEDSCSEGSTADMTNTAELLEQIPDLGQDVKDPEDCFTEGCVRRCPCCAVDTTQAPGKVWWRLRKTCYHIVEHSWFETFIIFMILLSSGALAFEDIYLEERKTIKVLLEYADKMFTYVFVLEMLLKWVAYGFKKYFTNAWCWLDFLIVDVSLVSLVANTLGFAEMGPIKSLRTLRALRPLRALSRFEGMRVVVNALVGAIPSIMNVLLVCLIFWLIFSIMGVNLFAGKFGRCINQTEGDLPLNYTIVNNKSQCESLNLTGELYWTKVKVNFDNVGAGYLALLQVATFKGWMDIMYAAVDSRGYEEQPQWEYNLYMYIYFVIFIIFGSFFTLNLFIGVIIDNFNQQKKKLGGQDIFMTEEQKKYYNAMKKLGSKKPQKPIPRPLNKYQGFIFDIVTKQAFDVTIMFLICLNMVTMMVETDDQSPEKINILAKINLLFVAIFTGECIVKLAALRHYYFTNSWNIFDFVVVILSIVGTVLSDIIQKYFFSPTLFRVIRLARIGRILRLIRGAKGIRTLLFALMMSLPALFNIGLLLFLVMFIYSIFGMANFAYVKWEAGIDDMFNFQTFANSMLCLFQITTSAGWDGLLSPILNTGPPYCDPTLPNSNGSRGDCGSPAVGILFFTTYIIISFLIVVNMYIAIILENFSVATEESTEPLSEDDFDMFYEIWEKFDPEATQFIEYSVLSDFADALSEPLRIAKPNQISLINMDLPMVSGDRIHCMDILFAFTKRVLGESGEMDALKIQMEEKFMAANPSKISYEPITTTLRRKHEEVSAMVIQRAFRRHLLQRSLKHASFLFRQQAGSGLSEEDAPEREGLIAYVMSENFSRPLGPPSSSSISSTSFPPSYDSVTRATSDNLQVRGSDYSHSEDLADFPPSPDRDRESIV
T3 sequence (Q12809 whole entry): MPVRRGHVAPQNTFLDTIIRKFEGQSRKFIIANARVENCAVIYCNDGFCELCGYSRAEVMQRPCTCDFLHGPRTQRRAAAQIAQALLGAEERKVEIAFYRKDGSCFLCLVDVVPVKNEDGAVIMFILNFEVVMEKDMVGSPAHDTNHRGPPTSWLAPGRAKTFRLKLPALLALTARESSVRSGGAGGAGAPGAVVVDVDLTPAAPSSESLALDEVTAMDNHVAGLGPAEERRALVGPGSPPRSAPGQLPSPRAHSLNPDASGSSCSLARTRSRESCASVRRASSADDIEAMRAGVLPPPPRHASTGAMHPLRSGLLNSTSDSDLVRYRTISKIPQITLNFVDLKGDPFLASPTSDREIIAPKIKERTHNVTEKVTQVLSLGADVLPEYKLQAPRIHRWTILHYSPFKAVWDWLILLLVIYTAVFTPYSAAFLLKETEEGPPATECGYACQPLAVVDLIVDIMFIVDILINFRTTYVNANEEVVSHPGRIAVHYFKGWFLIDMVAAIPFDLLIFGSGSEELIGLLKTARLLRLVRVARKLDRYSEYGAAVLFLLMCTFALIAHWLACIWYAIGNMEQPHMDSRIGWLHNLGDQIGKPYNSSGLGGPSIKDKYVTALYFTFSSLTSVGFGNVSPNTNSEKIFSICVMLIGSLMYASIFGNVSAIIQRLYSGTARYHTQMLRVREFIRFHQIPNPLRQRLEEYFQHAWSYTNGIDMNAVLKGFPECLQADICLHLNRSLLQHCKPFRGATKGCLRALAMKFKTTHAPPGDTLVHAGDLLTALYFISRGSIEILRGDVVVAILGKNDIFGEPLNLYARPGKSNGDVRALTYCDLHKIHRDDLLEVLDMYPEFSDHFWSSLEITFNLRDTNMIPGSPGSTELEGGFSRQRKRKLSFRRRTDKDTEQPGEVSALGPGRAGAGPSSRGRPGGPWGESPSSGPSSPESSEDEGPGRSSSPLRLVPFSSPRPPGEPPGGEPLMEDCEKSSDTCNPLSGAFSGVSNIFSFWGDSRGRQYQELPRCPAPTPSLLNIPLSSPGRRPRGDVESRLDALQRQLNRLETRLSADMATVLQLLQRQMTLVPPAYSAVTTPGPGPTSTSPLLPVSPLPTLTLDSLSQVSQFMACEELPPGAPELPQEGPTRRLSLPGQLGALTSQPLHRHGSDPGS
5-HT2B, sequence (P41595 whole entry, species assumed): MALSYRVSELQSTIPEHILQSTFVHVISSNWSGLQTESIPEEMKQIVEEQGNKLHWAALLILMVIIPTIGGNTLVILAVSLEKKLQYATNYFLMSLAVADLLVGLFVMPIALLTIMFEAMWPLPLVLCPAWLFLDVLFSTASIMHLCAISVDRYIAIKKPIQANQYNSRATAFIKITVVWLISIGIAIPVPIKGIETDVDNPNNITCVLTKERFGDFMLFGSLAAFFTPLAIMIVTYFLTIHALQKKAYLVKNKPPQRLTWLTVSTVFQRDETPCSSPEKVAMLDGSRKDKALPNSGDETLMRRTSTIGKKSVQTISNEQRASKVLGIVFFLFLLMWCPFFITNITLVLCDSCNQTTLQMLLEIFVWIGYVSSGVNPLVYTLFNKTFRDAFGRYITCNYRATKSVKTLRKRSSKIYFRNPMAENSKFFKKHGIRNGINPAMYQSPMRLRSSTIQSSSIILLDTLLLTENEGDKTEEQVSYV
Dopamine transporter, sequence (Q01959 whole entry): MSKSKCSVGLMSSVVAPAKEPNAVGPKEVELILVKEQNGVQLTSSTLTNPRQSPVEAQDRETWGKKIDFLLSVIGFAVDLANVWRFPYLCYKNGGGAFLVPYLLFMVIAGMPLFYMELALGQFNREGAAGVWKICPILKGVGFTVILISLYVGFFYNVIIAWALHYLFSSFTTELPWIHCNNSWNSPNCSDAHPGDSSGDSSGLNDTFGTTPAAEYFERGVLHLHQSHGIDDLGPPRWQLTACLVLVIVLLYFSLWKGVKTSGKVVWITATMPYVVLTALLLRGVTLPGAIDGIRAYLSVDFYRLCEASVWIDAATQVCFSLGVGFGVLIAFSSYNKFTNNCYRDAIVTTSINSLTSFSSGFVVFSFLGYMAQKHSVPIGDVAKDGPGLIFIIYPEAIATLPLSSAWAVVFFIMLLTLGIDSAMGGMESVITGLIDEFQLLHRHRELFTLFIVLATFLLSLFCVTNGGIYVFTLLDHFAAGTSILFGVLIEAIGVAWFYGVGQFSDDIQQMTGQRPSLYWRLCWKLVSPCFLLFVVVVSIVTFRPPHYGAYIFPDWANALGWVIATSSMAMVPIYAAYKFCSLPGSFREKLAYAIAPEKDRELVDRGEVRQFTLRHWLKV
T1 sequence (P05177 whole entry): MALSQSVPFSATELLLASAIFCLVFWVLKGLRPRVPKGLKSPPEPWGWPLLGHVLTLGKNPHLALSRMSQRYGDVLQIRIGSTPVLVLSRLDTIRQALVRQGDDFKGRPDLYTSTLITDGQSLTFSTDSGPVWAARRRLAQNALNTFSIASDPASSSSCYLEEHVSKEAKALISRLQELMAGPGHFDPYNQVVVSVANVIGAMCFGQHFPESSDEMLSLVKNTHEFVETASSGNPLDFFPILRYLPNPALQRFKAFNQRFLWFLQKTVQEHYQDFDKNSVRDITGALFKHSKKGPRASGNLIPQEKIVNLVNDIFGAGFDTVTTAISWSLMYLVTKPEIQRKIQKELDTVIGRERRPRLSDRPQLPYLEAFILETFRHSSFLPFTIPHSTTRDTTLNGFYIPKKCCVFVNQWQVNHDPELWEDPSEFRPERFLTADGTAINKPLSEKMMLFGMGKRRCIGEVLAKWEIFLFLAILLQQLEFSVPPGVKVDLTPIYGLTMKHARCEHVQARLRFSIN

## COc1ccc2ncc(F)c(CC[C@@]3(O)CO[C@@H]4[C@@H](NCc5cc6c(cn5)OCCO6)CO[C@@H]43)c2n1 [Compound 6, (3R, 3aS,6S,6aR)-6-(((2,3-dihydro-[1,4]dioxino[2,36-c]pyridin-7-yl)methyl)amnino)-3-(2-(3-fluoro-6-methoxy-1,5-naphthyridin-4-yl)ethyl)hexahydrofuro[3,2-b]furan-3-ol]
[1]
  MIC: 2 µg/mL (≈ 4.01 µM)
[2]
  inhibition at 100 µM: 96%
[3]
  inhibition at 100 µM: 95%
[4]
  number of the 44 potential targets inhibited by >50%: five
[5]
  CYP1A2 inhibition: Less than 50%
[6]; 3 μM
  % Inhibition Nav1.5 Late (antagonist - inhibition of ATXII EC50 current): 4.3%
[6]; 30 μM
  % Inhibition Nav1.5 Late (antagonist - inhibition of ATXII EC50 current): 19.1%
[6]; 100 μM
  % Inhibition Nav1.5 Late (antagonist - inhibition of ATXII EC50 current): 50.9%
[7]; 3 μM
  % Inhibition hERG (tail current): −2.4%
[7]; 30 μM
  % Inhibition hERG (tail current): 11.3%
[7]; 100 μM
  % Inhibition hERG (tail current): 39.0%
[8]
  MIC: 1 µg/mL (≈ 2.01 µM)
[9]
  MIC: 2 µg/mL (≈ 4.01 µM)
[10]; human plasma
  fraction unbound: 0.138
[10]; mouse plasma
  fraction unbound: 0.047
[11]
  MIC: ≤ 0.12 µg/mL
[12]
  solubility kinetic: 76.2 µM (≈ 38 µg/mL)
[13]
  MIC: 128 µg/mL (≈ 257 µM)
[14]
  MIC: 2 µg/mL (≈ 4.01 µM)
